Where two headings read alike, the source gives them in different places.
Columns and labels:
[1] = system: immature articular cartilage explants; assay: Disc-core cartilage explant integration culture with histology; assay type: cell-based
From the text: (§1) Six millimetre diameter cartilage explants from immature articular cartilage containing 3 mm diameter inner cores, both created using punch biopsy tools (Steifel), were placed in Dulbecco's modified Eagles medium (DMEM) culture medium containing various concentrations of interleukin-1β or tumour necrosis factor α (TNFα; Peprotech), or, the culture medium without cytokine as a control. The medium was removed after the nominated time and washed once with DMEM then replaced with DMEM medium containing 50 μg/ml ascorbate, 10 mM HEPES, gentamycin and supplemented with 1× insulin-transferrin-selenium (ITS; Sigma). For qPCR studies the explants were first allowed to equilibriate in serum containing medium for 3 days, then washed 3 times in serum-free DMEM before the treatment as described above. For long term culture following 2 hour cytokine treatment explants were treated immediately following their excision from the joint, then cultured for 4 weeks in serum-free DMEM containing ITS, ascorbate, HEPES and gentamycin. The culture medium was changes 3 times a week.
Four week core and disc cultures were fixed with neutral-buffered formyl-saline and left overnight at 4 C. The explants were then processed for wax embedding. Ten micron sections were cut using a microtome, and sections dewaxed and rehydrated in a descending series of alcohols. Sections were stained with haemotoxylin (1 minute), washed in water and then stained with Safranin-O (2 minutes) washed briefly in water and then dehydrated, dipped in xylene and then mounted in DPX liquid under coverslips.

[2] = system: immature articular cartilage explants; assay: Mechanical push-out test of disc/ring interface; assay type: cell-based; details: FIG. 2, 3 weeks in culture, n=4
From the text: as §1, with “For long term culture following 2 hour cytokine treatment explants were treated immediately following their excision from the joint, then cultured for 4 weeks in serum-free DMEM containing ITS, ascorbate, HEPES and gentamycin. The culture medium was changes 3 times a week.” left out
Adhesive properties of the disc/ring interface after 3-weeks in culture were assessed using a push-out test (n=4). Thickness of the sample was measured using calipers. […] A computer activated micro-stepper controlled the displacement of the push-out rod (0.05 mm/min), whilst a load cell (100N) coupled to the rod measured the push-out force. The adhesive strength was calculated from the maximum force measured at failure per unit of interfacial area.

MMP13 gene expression = assay: qPCR MMP13 gene expression in cartilage explants; assay type: cell-based
Experimental: The medium was removed after the nominated time and washed once with DMEM then replaced with DMEM medium containing 50 μg/ml ascorbate, 10 mM HEPES, gentamycin and supplemented with 1× insulin-transferrin-selenium (ITS; Sigma). For qPCR studies the explants were first allowed to equilibriate in serum containing medium for 3 days, then washed 3 times in serum-free DMEM before the treatment as described above. For long term culture following 2 hour cytokine treatment explants were treated immediately following their excision from the joint, then cultured for 4 weeks in serum-free DMEM containing ITS, ascorbate, HEPES and gentamycin. The culture medium was changes 3 times a week.
Quantitative polymerase chain reaction (qPCR) using the fluorescent dye SYBR Green (Eurogentec, Belgium) was used to determine the absolute expression levels of ADAMTS4 and MMP-13 between explants. Real-time PCR reactions were carried out in 25 μl volumes in a 96-well plate (Applied Biosystems™) containing 1× buffer (10×), 3.5 mM MgCl2, 200 μM dNTPs, 0.3 μM of sense and antisense primers, 0.025 U enzyme and 1:66000 SYBR GreenI®. All reactions were made using gPCR™ Core Kit for SYBR Green I® (Eurogentec). At the end of each reaction, the cycle threshold (CT) was manually setup at the level that reflected the best kinetic PCR parameters, and melting curves were acquired and analysed. Absolute values for the gene of interest were calculated from standard curves generated using serially diluted plasmid cloned and sequence verified template (ng DNA) and were normalized to the housekeeping gene 18S rRNA.

cartilage = details: in vitro, cited from earlier work

Row | Compound | integration between disc and core cartilages ([1]; 10 ng/ml for 24 hours, unsupplemented culture medium, cultured for a further 2 weeks (FIG. 1A)) | chondrocyte migration in the interfacial matrix ([1]; 25 ng/ml IL1β for 2 hours, then 4 weeks culture, high power histology (FIG. 9)) | integration, assessed qualitatively through retention of matrix integrity (safranin-O histology) ([1]; 25 ng/ml IL1β for 2 hours, then 4 weeks serum-free culture with ITS (FIG. 8)) | force to push out the explant from the disc versus untreated explants [2] | increase in MMP13 gene expression (MMP13 gene expression; 25 ng/ml IL1β, 2 hours, P>0.116, n=3 (FIG. 3)) [fold] | MMP13 gene expression, effect of increasing concentrations (MMP13 gene expression; 12.5-100 ng/ml for 2 hours) | cartilage integration (cartilage; 1 pg/ml or 100 pg/ml, 14 days) | cartilage integration (cartilage; 10 pg/ml, incubation of the cartilage for 14 days) | increase in MMP13 gene expression (MMP13 gene expression; 100 μM retinoic acid, 2 hour incubation, P<0.03, n=3 (FIG. 6))
1 | IL1β: catabolic cytokine, member of the interleukin-1 superfamily | enhances integration | presence of migrating chondrocytes within the interfacial matrix | best achieved | almost six times more force | 1.64 | increase in MMP13 gene expression | not consistent | enhanced cartilage integration | –
2 | CC1=C(/C=C/C(C)=C/C=C/C(C)=C/C(=O)O)C(C)(C)CCC1 [Retinoic acid, reference compound] | – | – | – | – | – | – | – | – | approximately 3 fold
